pIC50: −log10 of the molar value.
Target: Tyrosine-protein kinase Yes (Homo sapiens) (UniProt P07947)
Assay: YES1 kinase inhibition, dose response, biochemical, Z'-LYTE, FRET readout, direct format (AID 1671438)
Details: Z'-LYTE FRET kinase activity, recombinant YES1

Sequence of Tyrosine-protein kinase Yes (Homo sapiens) (P07947 whole entry, looked up): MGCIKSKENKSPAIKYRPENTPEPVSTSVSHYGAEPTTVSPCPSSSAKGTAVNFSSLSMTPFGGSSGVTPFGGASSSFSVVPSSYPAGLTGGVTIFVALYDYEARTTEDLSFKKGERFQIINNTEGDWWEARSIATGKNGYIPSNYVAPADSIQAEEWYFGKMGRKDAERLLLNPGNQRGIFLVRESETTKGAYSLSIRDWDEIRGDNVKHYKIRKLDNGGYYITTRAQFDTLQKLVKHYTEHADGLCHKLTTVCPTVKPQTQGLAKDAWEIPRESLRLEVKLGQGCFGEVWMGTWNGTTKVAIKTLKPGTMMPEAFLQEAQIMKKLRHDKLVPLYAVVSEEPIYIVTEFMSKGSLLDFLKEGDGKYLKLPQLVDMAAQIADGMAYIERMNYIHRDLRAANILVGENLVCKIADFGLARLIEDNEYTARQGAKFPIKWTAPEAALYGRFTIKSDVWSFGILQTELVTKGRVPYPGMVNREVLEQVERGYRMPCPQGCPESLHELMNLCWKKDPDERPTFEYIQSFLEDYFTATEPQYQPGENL

pIC50: 6.03
SMILES: COc1cc2ncnc(Nc3cccc(Cl)c3)c2cc1OC

— PubChem BioAssay AID1671438
